Tests used:
[1] = system: Human pancreatic cancer Mia PaCa-2 cells; assay: In vivo efficacy, Mia PaCa-2 xenograft in nude mice; set-up: species or system mouse; conditions: MiaPaCa-2 model, 25 mg/kg PO QD 21 days
Description: (§1) The groups were as follows: 1) a solvent control group, 8 mice; and 2) a control compound group and a test compound group, 8 mice each. The mice in the solvent control group were intragastrically administered 0.5% CMC-Na twice a day; the mice in the compound groups were intragastrically administered 0.50% MC-Tween-80 suspension once a day. On Tuesday and Thursday each week, tumor volumes and body weight of the mice were measured, and the nude mice were sacrificed on day 21 after the administration. […] The toxicity of the compounds was evaluated according to the body weight of the mice.

PC3 cells [2] = assay: PC3 cell proliferation, 2D activity assay (Cell Titer-Lumi, 72 h); format: cell-based, human; conditions: Homo sapiens, PC-3, read-out: 2D inhibitory activity against PC3 cells IC50
[3] = In vivo pharmacokinetic experiment in CD-1 mice; conditions: mouse, plasma, CD-1 female mice; for Vd: read-out: Vdss
Description: […] The mice were fasted for at least 12 h before the administration and given food 4 h after the administration, and they were given ad libitum access to water during the experiment.
On the day of the experiment, animals in the intravenous group were given the corresponding compound by single injection via the tail vein at an administration volume of 10 mL/kg; and animals in the oral group were given the corresponding compound by single intragastric injection at an administration volume of 10 mL/kg. The animals were weighed before administration, and the administration volume was calculated according to the body weight. The sample collection time points were 0.083 h, 0.167 h, 0.5 h, 1 h, 2 h, 4 h, 8 h, and 24 h. About 200 μL of whole blood was collected through the orbital venous plexus at each time point and used to prepare plasma for concentration determination by high-performance liquid chromatography-tandem mass spectrometry (LC-MS/MS). The plasma concentrations were processed using a non-compartmental model of Winnolin pharmacokinetic software, and the pharmacokinetic parameters were calculated using a linear-log trapezoidal method.

PC3 cells [4] = assay: Inhibition of PC3 cell low adsorption (adherent cell count, 4 h); format: cell-based; conditions: Homo sapiens, PC-3; 4 h treatment; read-out: IC50 against PC3 cell low adsorption
Description: PC3 cells were seeded at 8000 cells/well. 4 h after the cells were treated with a compound, the number of adherent cells was counted. The inhibition percentage and IC50 of the compound were calculated compared to the DMSO group.

[5] = system: Human prostate cancer PC3 cells; assay: In vivo efficacy, PC3 xenograft in nude mice; set-up: species or system mouse; conditions: PC-3 model, 25 mg/kg, QD (21 days), PO
Description: as §1, with “0.5%” for “0.50%”

FAK recombinant protein = FAK recombinant protein (Homo sapiens (Human), UniProt Q05397); assay: Inhibitory activity against FAK enzyme (HTRF, TK substrate); format: biochemical
Description: A compound serially diluted with DMSO was mixed with a FAK recombinant protein. After the mixture was left to stand at room temperature for 10 min, a biotin-labeled TK substrate (TK) and ATP were added. […] The inhibition percentage and IC50 of the compound were calculated compared to the DMSO control group.

PC3 cells [6] = assay: PC3 cell proliferation, 3D activity assay (3D culture, 14 days); format: cell-based, human; conditions: Homo sapiens, PC-3, 336 h, read-out: 3D inhibitory activity against PC3 cells IC50
[7] = system: Mouse colon cancer MC38 cells; assay: In vivo efficacy, MC38 model in BALB/c mice, single drug and PD-1 combination; conditions: MC-38 model, single drug, 50 mg/kg, QD (21 days), PO
Description: Female BALB/c mice (aged 6 weeks, 18-22 g) were provided by Vital River Laboratory Animal Technology Co., Ltd. (China) and used one week after quarantine and acclimation. All animals were kept in a room at 23±2° C. with a relative humidity of 50±5%, artificial lighting was provided from 08:00 to 20:00 every day, and the air was exchanged 13-18 times per hour.
After being subcultured, the cells were collected when they reached the desired amount. The BALB/c mice were subcutaneously injected with 1×10^6 MC38 cells on the right side to form tumors. […] Administration was then started. Tumor volumes were measured with a caliper on day 3, day 7, day 10, day 14, day 17, and day 21 after the administration.
The toxicity of the compounds was evaluated according to the body weight and state of the mice.

[8] = system: phosphorylation at the FAK 397 site; assay: Inhibition of Y397 phosphorylation in PC3 cells (ELISA); format: cell-based; conditions: Homo sapiens, PC-3, 3 h treatment, read-out: IC50 against Y397 phosphorylation
Description: PC3 cells were seeded at 8000 cells/well. […] The inhibition percentage and IC50 of the compound were calculated compared to the DMSO group.

FAK recombinant protein, sequence (Q05397 whole entry): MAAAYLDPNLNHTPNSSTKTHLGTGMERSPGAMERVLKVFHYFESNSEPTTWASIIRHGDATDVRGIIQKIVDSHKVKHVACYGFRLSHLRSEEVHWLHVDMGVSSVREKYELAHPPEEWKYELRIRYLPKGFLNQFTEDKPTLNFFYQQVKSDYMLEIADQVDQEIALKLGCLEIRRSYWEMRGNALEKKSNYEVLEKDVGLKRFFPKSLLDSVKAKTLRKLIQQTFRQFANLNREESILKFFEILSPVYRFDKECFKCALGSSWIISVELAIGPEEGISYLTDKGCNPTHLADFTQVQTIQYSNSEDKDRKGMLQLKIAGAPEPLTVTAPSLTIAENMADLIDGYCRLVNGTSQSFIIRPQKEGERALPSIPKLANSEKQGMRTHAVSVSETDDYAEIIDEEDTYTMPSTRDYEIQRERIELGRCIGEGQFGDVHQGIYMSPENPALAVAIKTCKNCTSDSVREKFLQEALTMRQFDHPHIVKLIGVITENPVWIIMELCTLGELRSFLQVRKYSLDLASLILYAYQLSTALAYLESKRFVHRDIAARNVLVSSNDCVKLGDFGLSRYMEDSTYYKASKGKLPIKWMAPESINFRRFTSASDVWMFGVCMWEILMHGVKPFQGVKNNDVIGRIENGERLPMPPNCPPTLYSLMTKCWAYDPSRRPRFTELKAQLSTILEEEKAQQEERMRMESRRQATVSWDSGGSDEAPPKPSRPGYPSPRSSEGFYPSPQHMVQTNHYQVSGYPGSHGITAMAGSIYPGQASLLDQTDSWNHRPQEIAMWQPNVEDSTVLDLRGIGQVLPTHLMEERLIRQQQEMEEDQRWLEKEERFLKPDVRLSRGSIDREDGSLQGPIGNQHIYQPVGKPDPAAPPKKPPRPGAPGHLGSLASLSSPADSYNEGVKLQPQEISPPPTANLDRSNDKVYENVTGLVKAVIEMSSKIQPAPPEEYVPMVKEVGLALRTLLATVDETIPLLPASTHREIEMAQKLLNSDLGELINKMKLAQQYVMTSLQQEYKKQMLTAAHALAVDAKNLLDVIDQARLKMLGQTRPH

Row | IC50 (PC3 cells [2]) | AUC(0-t) ([3]; iv, injection (1 mg/kg)) | clearance ([3]; iv, injection (1 mg/kg)) | half-life ([3]; iv, injection (1 mg/kg)) | Vd ([3]; iv, injection (1 mg/kg)) | IC50 (PC3 cells [4]) | IC50 (FAK recombinant protein) | IC50 (PC3 cells [6]) | IC50 [8] | AUC(0-t) ([3]; oral administration (10 mg/kg)) | Cmax ([3]; oral administration (10 mg/kg)) | Tmax ([3]; oral administration (10 mg/kg)) | bioavailability ([3]; oral administration (10 mg/kg)) | half-life ([3]; oral administration (10 mg/kg)) | Compound | TGI(%) [1] | TGI(%) [5] | TGI(%) [7] | also measured
1 | > 10000 nM | 883 ng·h/mL | 18.9 mL/min/kg | 3.48 h | 5.14 L/kg | 1.09 nM | < 20 nM | 0.32 nM | – | – | – | – | – | – | COc1cc(N2CC3(CCN(C)CC3)C2)ccc1Nc1ncc(C(F)(F)F)c(Oc2cccc3c2C(=O)N(C)C32CC2)n1 [Compound 79] | 89.35% | 88.33% | 69.21% | AUC(0-t) ([3]; oral administration, 5 mg/kg): 1760 ng·h/mL; Cmax ([3]; oral administration, 5 mg/kg): 201 ng/mL; Tmax ([3]; oral administration, 5 mg/kg): 4 h; bioavailability ([3]; oral administration, 5 mg/kg): 40%; half-life ([3]; oral administration, 5 mg/kg): 3.06 h
2 | > 2000 nM | 850 ng·h/mL | 19.6 mL/min/kg | 4.69 h | 6.15 L/kg | 1.46 nM | < 20 nM | 0.46 nM | < 0.01 nM | 6120 ng·h/mL | 522 ng/mL | 4 h | 72% | 5.26 h | COc1cc(N2CC3(CCN(C)CC3)C2)c(F)cc1Nc1ncc(C(F)(F)F)c(Oc2cccc3c2C(=O)N(C)C32CC2)n1 [Compound 120, 4′-((2-((5-fluoro-2-methoxy-4-(7-methyl-2,7-diazaspiro[3.5]nonan-2-yl)phenyl)amino)-5-(trifluoromethyl)pyrimidin-4-yl)oxy)-2′-methylspiro[cyclopropane-1,1′-isoindolin]-3′-one] | – | 90.83% | 66.33% | –
3 | > 10000 nM | 1110 ng·h/mL | 15 mL/min/kg | 3.31 h | 4.15 L/kg | 1.16 nM | < 20 nM | 0.6 nM | 0.22 nM | 8910 ng·h/mL | 907 ng/mL | 2 h | 80.2% | 2.2 h | COc1cc(N2CC3(CCN(C)CC3)C2)ccc1Nc1ncc(Cl)c(Oc2cccc3c2C(=O)N(C)C32CC2)n1 [Compound 136, 4′-((5-chloro-2-((2-methoxy-4-(7-methyl-2,7-diazaspiro[3.5]nonan-2-yl)phenyl)amino)pyrimidin-4-yl)oxy)-2′-methylspiro[cyclopropane-1,1′-isoindolin]-3′-one] | 89.46% | 76.67% | 32.53% | –
4 | > 10000 nM | 1390 ng·h/mL | 12 mL/min/kg | 3.67 h | 3.71 L/kg | 1.71 nM | < 20 nM | 1.4 nM | 0.08 nM | 12400 ng·h/mL | 810 ng/mL | 4 h | 89.4% | 4.19 h | COc1cc(N2CC3(CCN(C)CC3)C2)c(F)cc1Nc1ncc(Cl)c(Oc2cccc3c2C(=O)N(C)C32CC2)n1 [Compound 137, 4′-((5-chloro-2-((5-fluoro-2-methoxy-4-(7-methyl-2,7-diazaspiro[3.5]nonan-2-yl)phenyl)amino)pyrimidin-4-yl)oxy)-2′-methylspiro[cyclopropane-1,1′-isoindolin]-3′-one] | 87.68% | 76.39% | – | –
